Laboratory results reported in US10821115B2, “Compounds that inhibit Mcl-1 protein” (priority 2017, dated 2020).
Read-outs that look alike come from different tables or passages of the source.

Assays:
[1] = test system: human multiple myeloma cell line, OPM-2; experiment: Cell viability assay (OPM-2 10 FBS), CellTiter-Glo; type: cell-based
In short: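 OPM-2 cells at 3000 cells/well in RPMI 1640 with 10% FBS were exposed to serially diluted compounds for 16 h at 37 °C, 5% CO2.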

[2] = target: recombinant human Mcl-1 (residues 171-327) / Bim interaction (Homo sapiens (Human), UniProt Q07820); experiment: biochemical; type: binding; settings: read-out: Mcl-1 HTRF IC50
Chain of recombinant human Mcl-1 (residues 171-327) / Bim interaction (Q07820 171-327): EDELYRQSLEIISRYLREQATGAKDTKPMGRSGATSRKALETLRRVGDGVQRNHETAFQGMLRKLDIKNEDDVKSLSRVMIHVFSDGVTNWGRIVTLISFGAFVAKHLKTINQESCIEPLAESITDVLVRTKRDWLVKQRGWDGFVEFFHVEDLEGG

[3] = read-out: OPM-2 10% FBS IC50 IP, OPM-2 cells, 10% FBS, 16 h, CellTiter-Glo
[4] = Homo sapiens, OPM-2, 16 h, read-out: OPM-2 10% FBS IC50 IP, OPM-2 cells, 10% FBS, 16 h, CellTiter-Glo
[5] = TR-FRET, Mcl-1(171-327) / biotin-Bim (51-76)

Question: Which IC50 [1, 3] does the source give for `C[C@@H]1[C@@H](C)CCC[C@@](O)(CS(=O)(=O)N(C)C)[C@@H]2CC[C@H]2CN2C[C@@]3(CCCc4cc(Cl)ccc43)COc3ccc(cc32)C(=O)NS1(=O)=O` [Example 100099, 1-((1S,3′R,6′R,7′S,11′S,12′R)-6-chloro-7′-hydroxy-11′,12′-dimethyl-13′,13′-dioxido-15′-oxo-3,4-dihydro-2H-spiro[naphthalene-1,22′-[20]oxa[13]thia[1,14]diazatetracyclo [14.7.2.0~3,6~.0~19,24~]pentacosa[16,18,24]trien]-7′-yl)-N,N-dimethylmethanesulfonamide] here?
Answer: Its IC50 is 349 nM.

Question: And the IC50 [2]?
Answer: Its IC50 is 0.659 nM.

Question: For `C[C@@H]1[C@@H](C)CCC[C@@](O)(CS(=O)(=O)N(C)C)[C@@H]2CC[C@H]2CN2C[C@@]3(CCCc4cc(Cl)ccc43)COc3ccc(cc32)C(=O)NS1(=O)=O` [Example 100100, 1-((1S,3′R,6′R,7′S,11′S,12′R)-6-chloro-7′-hydroxy-11′,12′-dimethyl-13′,13′-dioxido-15′-oxo-3,4-dihydro-2H-spiro[naphthalene-1,22′-[20]oxa[13]thia[1,14]diazatetracyclo [14.7.2.0~3,6~.0~19,24~]pentacosa[16,18,24]trien]-7′-yl)-N,N-dimethylmethanesulfonamide], which IC50 [1, 3] is on record?
Answer: The IC50 was 1320 nM.

Question: And the IC50 [2]?
Answer: Its IC50 is 2.1 nM.

Question: What does the source list for `C[C@@H]1[C@@H](C)C/C=C/[C@@](O)(CC(=O)O)[C@@H]2CC[C@H]2CN2C[C@@]3(CCCc4cc(Cl)ccc43)COc3ccc(cc32)C(=O)NS1(=O)=O` [Example 100101, ((1S,3′R,6′R,7′S,8′E,11′S,12′R)-6-chloro-7′-hydroxy-11′,12′-dimethyl-13′,13′-dioxido-15′-oxo-3,4-dihydro-2H-spiro[naphthalene-1,22′-[20]oxa[13]thia[1,14]diazatetracyclo [14.7.2.0~3,6~.0~19,24~]pentacosa[8,16,18,24]tetraen]-7′-yl)acetic acid]?
Answer: IC50 [1, 4]: 2600 nM; IC50 [2, 5]: 0.062 nM

Question: Which IC50 [1, 4] does the source give for `C[C@@H]1[C@@H](C)CCCC2(OCCO2)[C@@H]2CC[C@H]2CN2C[C@@]3(CCCc4cc(Cl)ccc43)COc3ccc(cc32)C(=O)NS1(=O)=O` [Example 100102, (3′R,6′R,11′S,12′R,22′S)-6″-chloro-11′,12′-dimethyl-3″,4″-dihydro-2″H,15′H-dispiro[1,3-dioxolane-2,7′-[20]oxa[13]thia[1,14]diazatetracyclo [14.7.2.0~3,6~.0~19,24~]pentacosa[16,18,24]triene-22′,1″-naphthalen]-15′-one 13′,13′-dioxide] here?
Answer: Its IC50 is 1430 nM.

Question: What about the IC50 [2, 5] of the same compound?
Answer: The IC50 was 0.99 nM.

Question: Which results are given for `C[C@@H]1[C@@H](C)CCC[C@@](O)(Cc2ccccn2)[C@@H]2CC[C@H]2CN2C[C@@]3(CCCc4cc(Cl)ccc43)COc3ccc(cc32)C(=O)NS1(=O)=O` [Example 100104, (1S,3′R,6′R,7′R,11′S,12′R)-6-chloro-7′-hydroxy-11′,12′-dimethyl-7′-(2-pyridinylmethyl)-3,4-dihydro-2H,15′H-spiro[naphthalene-1,22′-[20]oxa[13]thia[1,14]diazatetracyclo [14.7.2.0~3,6~.0~19,24~]pentacosa[16,18,24]trien]-15′-one 13′,13′-dioxide]?
Answer: IC50 [1, 3]: 250 nM; IC50 [2, 5]: 0.599 nM

Question: With `C[C@@H]1[C@@H](C)CCC[C@@](O)(Cc2ccccn2)[C@@H]2CC[C@H]2CN2C[C@@]3(CCCc4cc(Cl)ccc43)COc3ccc(cc32)C(=O)NS1(=O)=O` [Example 100105, (1S,3′R,6′R,7′R,11′S,12′R)-6-chloro-7′-hydroxy-11′,12′-dimethyl-7′-(2-pyridinylmethyl)-3,4-dihydro-2H,15′H-spiro[naphthalene-1,22′-[20]oxa[13]thia[1,14]diazatetracyclo [14.7.2.0~3,6~.0~19,24~]pentacosa[16,18,24]trien]-15′-one 13′,13′-dioxide] as the compound, how does the IC50 [1, 3] read?
Answer: The IC50 was 3660 nM.

Question: And the IC50 [2, 5]?
Answer: Its IC50 is 5.93 nM.

Question: `C[C@@H]1[C@@H](C)C/C=C/[C@@](O)([C@@H]2CCN(C)C2=O)[C@@H]2CC[C@H]2CN2C[C@@]3(CCCc4cc(Cl)ccc43)COc3ccc(cc32)C(=O)NS1(=O)=O` [Example 100106, (1S,3′R,6′R,7′S,8′E,11′S,12′R)-6-chloro-7′-hydroxy-11′,12′-dimethyl-7′-((3S)-1-methyl-2-oxo-3-pyrrolidinyl)-3,4-dihydro-2H,15′H-spiro[naphthalene-1,22′-[20]oxa[13]thia[1,14]diazatetracyclo [14.7.2.0~3,6~.0~19,24~]pentacosa[8,16,18,24]tetraen]-15′-one 13′,13′-dioxide] was tested. Which IC50 [1, 3] did it give?
Answer: Its IC50 is 121 nM.

Question: What about the IC50 [2, 5] of the same compound?
Answer: The IC50 was 0.143 nM.

Question: What does the source list for `C[C@@H]1[C@@H](C)CCC[C@@](O)(CC(=O)N2CCCC2)[C@@H]2CC[C@H]2CN2C[C@@]3(CCCc4cc(Cl)ccc43)COc3ccc(cc32)C(=O)NS1(=O)=O` [Example 100107, (1S,3′R,6′R,7′R,11′S,12′R)-6-chloro-7′-hydroxy-11′,12′-dimethyl-7′-(2-oxo-2-(1-pyrrolidinyl)ethyl)-3,4-dihydro-2H,15′H-spiro[naphthalene-1,22′-[20]oxa[13]thia[1,14]diazatetracyclo [14.7.2.0~3,6~.0~19,24~]pentacosa[16,18,24]trien]-15′-one 13′,13′-dioxide]?
Answer: IC50 [1, 4]: 181 nM; IC50 [2, 5]: 0.296 nM

Question: `C[C@@H]1[C@@H](C)CCC[C@@](O)(CC(=O)N2CCCC2)[C@@H]2CC[C@H]2CN2C[C@@]3(CCCc4cc(Cl)ccc43)COc3ccc(cc32)C(=O)NS1(=O)=O` [Example 100108, (1S,3′R,6′R,7′R,11′S,12′R)-6-chloro-7′-hydroxy-11′,12′-dimethyl-7′-(2-oxo-2-(1-pyrrolidinyl)ethyl)-3,4-dihydro-2H,15′H-spiro[naphthalene-1,22′-[20]oxa[13]thia[1,14]diazatetracyclo [14.7.2.0~3,6~.0~19,24~]pentacosa[16,18,24]trien]-15′-one 13′,13′-dioxide] was tested. Which IC50 [1, 3] did it give?
Answer: Its IC50 is 358 nM.

Question: And the IC50 [2, 5]?
Answer: Its IC50 is 0.436 nM.

Question: `C[C@@H]1[C@@H](C)C/C=C/[C@@](O)([C@@H]2CCN(C)C2=O)[C@@H]2CC[C@H]2CN2C[C@@]3(CCCc4cc(Cl)ccc43)COc3ccc(cc32)C(=O)NS1(=O)=O` [Example 100109, (1S,3′R,6′R,7′S,8′E,11′S,12′R)-6-chloro-7′-hydroxy-11′,12′-dimethyl-7′-((3S)-1-methyl-2-oxo-3-pyrrolidinyl)-3,4-dihydro-2H,15′H-spiro[naphthalene-1,22′-[20]oxa[13]thia[1,14]diazatetracyclo [14.7.2.0~3,6~.0~19,24~]pentacosa[8,16,18,24]tetraen]-15′-one 13′,13′-dioxide] was tested. Which IC50 [1, 3] did it give?
Answer: The IC50 was 2140 nM.

Question: What about the IC50 [2, 5] of the same compound?
Answer: The IC50 was 0.486 nM.

Question: With `CCN(CC)C(=O)C[C@]1(O)CCC[C@H](C)[C@@H](C)S(=O)(=O)NC(=O)c2ccc3c(c2)N(C[C@@H]2CC[C@H]21)C[C@@]1(CCCc2cc(Cl)ccc21)CO3` [Example 100111, 2-((1S,3′R,6′R,7′R,11′S,12′R)-6-chloro-7′-hydroxy-11′,12′-dimethyl-13′,13′-dioxido-15′-oxo-3,4-dihydro-2H-spiro[naphthalene-1,22′-[20]oxa[13]thia[1,14]diazatetracyclo [14.7.2.0~3,6~.0~19,24~]pentacosa[16,18,24]trien]-7′-yl)-N,N-diethylacetamide] as the compound, how does the IC50 [1, 3] read?
Answer: The IC50 was 687 nM.

Question: What about the IC50 [2] of the same compound?
Answer: Its IC50 is 0.352 nM.

Question: Which results are given for `CCN(CC)C(=O)C[C@]1(O)CCC[C@H](C)[C@@H](C)S(=O)(=O)NC(=O)c2ccc3c(c2)N(C[C@@H]2CC[C@H]21)C[C@@]1(CCCc2cc(Cl)ccc21)CO3` [Example 100112, 2-((1S,3′R,6′R,7′R,11′S,12′R)-6-chloro-7′-hydroxy-11′,12′-dimethyl-13′,13′-dioxido-15′-oxo-3,4-dihydro-2H-spiro[naphthalene-1,22′-[20]oxa[13]thia[1,14]diazatetracyclo [14.7.2.0~3,6~.0~19,24~]pentacosa[16,18,24]trien]-7′-yl)-N,N-diethylacetamide]?
Answer: IC50 [1, 3]: 1800 nM; IC50 [2]: 1.29 nM

Question: Which results are given for `C[C@@H]1[C@@H](C)CCC[C@@](O)(Cc2ccncn2)[C@@H]2CC[C@H]2CN2C[C@@]3(CCCc4cc(Cl)ccc43)COc3ccc(cc32)C(=O)NS1(=O)=O` [Example 100113, (1S,3′R,6′R,7′R,11′S,12′R)-6-chloro-7′-hydroxy-11′,12′-dimethyl-7′-(4-pyrimidinylmethyl)-3,4-dihydro-2H,15′H-spiro[naphthalene-1,22′-[20]oxa[13]thia[1,14]diazatetracyclo [14.7.2.0~3,6~.0~19,24~]pentacosa[16,18,24]trien]-15′-one 13′,13′-dioxide]?
Answer: IC50 [1, 3]: 70 nM; IC50 [2, 5]: 0.182 nM

Question: Which results are given for `C[C@@H]1[C@@H](C)CCC[C@@](O)(Cc2ccncn2)[C@@H]2CC[C@H]2CN2C[C@@]3(CCCc4cc(Cl)ccc43)COc3ccc(cc32)C(=O)NS1(=O)=O` [Example 100114, (1S,3′R,6′R,7′R,11′S,12′R)-6-chloro-7′-hydroxy-11′,12′-dimethyl-7′-(4-pyrimidinylmethyl)-3,4-dihydro-2H,15′H-spiro[naphthalene-1,22′-[20]oxa[13]thia[1,14]diazatetracyclo [14.7.2.0~3,6~.0~19,24~]pentacosa[16,18,24]trien]-15′-one 13′,13′-dioxide]?
Answer: IC50 [1, 3]: 491 nM; IC50 [2, 5]: 1.05 nM

Question: For `C[C@@H]1[C@@H](C)CCC[C@@]2(OCCS2)[C@@H]2CC[C@H]2CN2C[C@@]3(CCCc4cc(Cl)ccc43)COc3ccc(cc32)C(=O)NS1(=O)=O` [Example 100115, (1S,3′R,6′R,7′S,11′S,12′R)-6-chloro-11′,12′-dimethyl-3,4-dihydro-2H,15′H-dispiro[naphthalene-1,22′-[20]oxa[13]thia[1,14]diazatetracyclo [14.7.2.0~3,6~.0~19,24~]pentacosa[16,18,24]triene-7′,2″-[1,3]oxathiolan]-15′-one 13′,13′-dioxide], which IC50 [1, 4] is on record?
Answer: The IC50 was 2840 nM.

Question: What about the IC50 [2, 5] of the same compound?
Answer: Its IC50 is 4.49 nM.
